Measured values: patent US20260272868A1 (priority 2022, published 2026)

What was measured:
[1] = test system: head twitch response (HTR); type: in vivo, mice; details: SC; higher and lower doses result in fewer HTRs
Protocol: Male C57BL/6 mice (~7-9 weeks old) were used in these studies. Mice were housed 2 per cage under standard temperature- and humidity-controlled laboratory conditions with a 12-hour light/dark cycle. Mice had free access to food and water.
Both compounds were dissolved in saline vehicle at a dose volume of 10 mL/kg. Doses were corrected for salt form so that the dose administered represented free base.
Mice were randomly assigned to 1 of 6 treatment groups consisting of 2 subcutaneous injections (see Table 1), which were administered according to the schedule in FIG. 1. […] Behavior was videotaped by a camera (GoPro Hero 9) mounted above the testing chambers. Recorded video was uploaded for analysis of head twitch behavior. Number of head twitch responses (HTRs) was recorded for each animal for each 2-min bin. For each treatment group, the mean number of HTRs in each 2- or 10-min bin, and across the whole 30-min recording period, were analyzed.

5-HT2A receptor = molecular target: T1, 5-HT2A receptor (Mus musculus, UniProt P35363); experiment: Ex vivo occupancy of cortical 5-HT2A receptors by DOPR, [3H]MDL100,907 autoradiography; type: in vivo, mice; details: for receptor occupancy at 0.32 mg/kg / receptor occupancy at 1 mg/kg / receptor occupancy at 3.2 mg/kg / receptor occupancy at 32 mg/kg: mouse, sc
T1 construct: Coronal sections containing the frontal cortex were be cut (20 μm thick) using a cryostat; from tissue; host or cells: frontal cortex sections of male C57BL/6 mouse brain
T1 sequence (P35363 whole entry): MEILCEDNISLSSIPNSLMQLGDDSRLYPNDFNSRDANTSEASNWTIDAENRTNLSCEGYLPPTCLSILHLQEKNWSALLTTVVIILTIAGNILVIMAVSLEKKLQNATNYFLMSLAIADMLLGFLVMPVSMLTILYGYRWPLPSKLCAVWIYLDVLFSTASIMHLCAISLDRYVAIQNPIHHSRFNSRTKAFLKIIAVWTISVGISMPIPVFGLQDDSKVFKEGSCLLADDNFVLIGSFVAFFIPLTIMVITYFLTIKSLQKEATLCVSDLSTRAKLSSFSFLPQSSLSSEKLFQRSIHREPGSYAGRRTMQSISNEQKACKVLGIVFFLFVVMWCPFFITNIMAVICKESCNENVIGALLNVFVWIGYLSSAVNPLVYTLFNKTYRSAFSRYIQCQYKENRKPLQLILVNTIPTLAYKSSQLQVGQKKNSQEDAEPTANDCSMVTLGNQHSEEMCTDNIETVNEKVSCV
Protocol: Mice had free access to food and water. Animals were randomly assigned to treatment groups.
Doses were calculated based on the HCl salt. MDL100,907 [methyl-^3H] was purchased from Novandi Chemistry. Ketanserin was purchased from Tocris (UK).
Mice were dosed with vehicle or DOPR (0.32, 1, 3.2, or 32 mg/kg, SC) and sacrificed at 15 or 60 minutes after dosing (n=5 per dose/time condition) by a rising CO2 concentration followed by cervical dislocation. Whole brains were removed, rinsed briefly with saline, and blot dried. A coronal cut was made at the level of the optic chiasm to produce an anterior brain block containing the frontal cortex (according to the Mouse Brain in Stereotaxic Coordinates, Paxinos and Franklin, second edition). The anterior brain block was then cut down the midline, both blocks were placed onto cork disks, covered with OCT embedding matrix (KMA-0100-00A, Cell Path), rapidly frozen in isopentane (cooled to −20/−30° C.) and stored at −20° C. for sectioning and ex vivo autoradiography. Coronal sections containing the frontal cortex were be cut (20 μm thick) using a cryostat and thaw mounted onto Superfrost plus slides and the slides were stored at −20° C. until the day of assay.
Slides containing brain sections were warmed to room temperature and sections were isolated using a DAKO pen and incubated at room temperature for 30 minutes in 200 μL of assay buffer containing 0.2 nM [^3H]MDL100,907 (total binding) or 0.2 nM [^3H]MDL100,907 and […] ketanserin (non-specific binding). Solutions were removed from the sections by aspiration and the slides were washed for two consecutive 5-minute periods in ice-cold wash buffer. The slides were then rinsed briefly in ice-cold distilled water to remove buffer salts and allowed to air dry. The assay and wash buffer consisted of 50 mM Tris, pH 7.4. The binding assay was performed on two separate occasions.
The waxy residue of the DAKO pen was removed with xylene to prevent sparks in the β-imager. Lint-free tissue and an air duster was used to remove any dust particles from the microscope slides. To make the slides conductive, copper foil tape was adhered to the free side of the microscope slides. The slides were placed in the β-imager and the levels of bound radioactivity in the sections were directly determined by counting the number of β-particles emerging from the delineated area using the M3 vision program (BioSpace). Data was collected from the brain sections over 16 hours and expressed in counts per minute per square millimetre (cpm/mm^2). A value for specific binding (cpm/mm^2) was generated by the subtraction of mean non-specific binding (cpm/mm^2) from mean total binding (cpm/mm^2) for each animal.

[2] = DOPR pharmacokinetics after SC administration; details: mouse, in vivo

## CCCc1cc(OC)c(CC(C)N)cc1OC (stereo not drawn) [DOPR, 2,5-dimethoxy-4-propylamphetamine]
[1]
  dose maximally efficacious for induction of HTR: 3.2 mg/kg
5-HT2A receptor; DOPR 0.32 mg/kg SC, 15 min
  Specific Binding (% of Vehicle): 105 % of Vehicle
  Specific binding, Mean (SEM): 1.39 (0.06) cpm/mm^2
  receptor occupancy at 0.32 mg/kg: -5%
5-HT2A receptor; DOPR 0.32 mg/kg SC, 60 min
  Specific Binding (% of Vehicle): 93 % of Vehicle
  Specific binding, Mean (SEM): 1.23 (0.08) cpm/mm^2
  receptor occupancy at 0.32 mg/kg: 7%
5-HT2A receptor; DOPR 1 mg/kg SC, 15 min
  Specific Binding (% of Vehicle): 104 % of Vehicle
  Specific binding, Mean (SEM): 1.38 (0.06) cpm/mm^2
  receptor occupancy at 1 mg/kg: -4%
5-HT2A receptor; DOPR 1 mg/kg SC, 60 min
  Specific Binding (% of Vehicle): 67 % of Vehicle
  Specific binding, Mean (SEM): 0.88 (0.07) cpm/mm^2
  receptor occupancy at 1 mg/kg: 33%
5-HT2A receptor; DOPR 3.2 mg/kg SC, 15 min
  Specific Binding (% of Vehicle): 71 % of Vehicle
  Specific binding, Mean (SEM): 0.93 (0.09) cpm/mm^2
  receptor occupancy at 3.2 mg/kg: 29%
5-HT2A receptor; DOPR 3.2 mg/kg SC, 60 min
  Specific Binding (% of Vehicle): 43 % of Vehicle
  Specific binding, Mean (SEM): 0.57 (0.05) cpm/mm^2
  receptor occupancy at 3.2 mg/kg: 57%
5-HT2A receptor; DOPR 32 mg/kg SC, 15 min
  Specific Binding (% of Vehicle): 18 % of Vehicle
  Specific binding, Mean (SEM): 0.23 (0.04) cpm/mm^2
  receptor occupancy at 32 mg/kg: 82%
5-HT2A receptor; DOPR 32 mg/kg SC, 60 min
  Specific Binding (% of Vehicle): 8 % of Vehicle
  Specific binding, Mean (SEM): 0.10 (0.01) cpm/mm^2
  receptor occupancy at 32 mg/kg: 92%
5-HT2A receptor; SC, mice
  dose calculated to occupy 50% of 5-HT2A receptors: 2.08 mg/kg
[2]
  Tmax: 1 h
